PubChem BioAssay (NCI)
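All cell lines were grown in 96-well plates and treated with compound for 48 hours. GI50 = concentration required for 50% inhibition of growth. The concentration for full growth arrest is given as TGI.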

Experiments:
Test in all cases: growth of human tumour cells (NCI), 48 h
[1] = test system: OVCAR-5 ovarian
[2] = test system: SK-MEL-28 melanoma
[3] = test system: OVCAR-8 ovarian
[4] = test system: HT29 colon
[5] = test system: A498 renal
[6] = test system: NCI-H226 lung
[7] = test system: MOLT-4 leukemia
[8] = test system: UACC-62 melanoma
[9] = test system: OVCAR-4 ovarian
[10] = test system: T-47D breast

| SMILES | TGI [1] [µM] | TGI [2] [µM] | TGI [3] [µM] | TGI [4] [µM] | TGI [5] [µM] | TGI [6] [µM] | TGI [7] [µM] | TGI [8] [µM] | TGI [9] [µM] | GI50 [1] [nM] | GI50 [2] [nM] | GI50 [3] [µM] | GI50 [5] [µM] | GI50 [10] [µM] | TGI [10] [µM] | GI50 [6] [µM] | GI50 [9] [µM] | GI50 [8] [nM] | GI50 [4] [µM] | GI50 [7] [µM] |
| --- | --- | --- | --- | --- | --- | --- | --- | --- | --- | --- | --- | --- | --- | --- | --- | --- | --- | --- | --- | --- |
| O=C(Nc1c(-c2nc3ccccc3[nH]2)sc(=S)n1-c1ccccc1)c1ccccc1 | > 100 | > 100 | > 100 | > 100 | > 100 | 58.1 | > 100 | > 100 | – | – | – | – | – | – | – | – | – | – | – | – |
| Cn1c(CCC#N)nc2ccc(Br)cc2c1=O | > 100 | > 100 | > 100 | > 100 | > 100 | > 100 | > 100 | > 100 | > 100 | – | – | – | – | – | – | – | – | – | – | – |
| COC(OC)c1cccc2c1C1(O)CCC3(CC21)OCCCCO3 (stereo unspecified) | > 100 | > 100 | > 100 | > 100 | > 100 | > 100 | > 100 | > 100 | > 100 | – | – | – | – | – | – | – | – | – | – | – |
| Cc1ccccc1C(=O)Oc1ccc(Oc2ccccc2)cc1 | > 100 | – | > 100 | > 100 | > 100 | > 100 | > 100 | > 100 | > 100 | – | – | – | – | – | – | – | – | – | – | – |
| Cc1ccc(C)c(NC(=O)c2cc(-c3ccc([N+](=O)[O-])cc3)nc(N)n2)c1 | > 100 | > 100 | > 100 | > 100 | > 100 | > 100 | > 100 | > 100 | > 100 | – | – | – | – | – | – | – | – | – | – | – |
| Cc1ccc(NC(=O)/C(CC(=O)c2c[n+](=O)c3ccccc3n2O)=N\NC(=O)C[n+]2ccccc2)cc1 | > 100 | > 100 | > 100 | > 100 | > 100 | > 100 | > 100 | > 100 | > 100 | – | – | – | – | – | – | – | – | – | – | – |
| COc1cnc2c(c1)C(=O)c1c-2n(CCCn2ccnc2)c(=O)c2cc(Cl)ccc12 | 35 | > 100 | 14.3 | – | 0.557 | 0.892 | – | 0.204 | > 100 | 309 | 611 | 0.0389 | 0.113 | 0.0263 | 0.309 | 0.0464 | 0.362 | 28.3 | – | – |
| O=C(O)/C(=C/c1ccccc1[N+](=O)[O-])c1ccccc1 | > 100 | > 100 | > 100 | > 100 | > 100 | > 100 | > 100 | > 100 | > 100 | – | – | – | – | – | – | – | – | – | – | – |
| CC(c1ccc(Br)cc1)C(C(=O)O)C(=O)O (stereo unspecified) | > 100 | > 100 | > 100 | > 100 | – | > 100 | > 100 | > 100 | > 100 | – | – | – | – | – | – | – | – | – | – | – |
| O=c1[nH]c(Br)nc2c(Br)c[nH]c12 | > 100 | > 100 | > 100 | > 100 | > 100 | > 100 | > 100 | > 100 | > 100 | – | – | – | – | – | – | – | – | – | – | – |
| CC(C)C(=O)N[C@@H](C)C(=O)N(Cc1ccc2ccccc2c1)N=O | > 100 | > 100 | > 100 | > 100 | > 100 | – | > 100 | > 100 | > 100 | – | – | – | – | – | – | – | – | – | – | – |
| CCCCCCCCCCCC(=O)OCC1OC(n2cc(F)c(=O)[nH]c2=O)C(N)C(OC(=O)CCCCCCCCCCC)C1O (stereo unspecified) | – | > 100 | > 100 | > 100 | > 100 | – | > 100 | > 100 | > 100 | – | – | – | – | – | – | – | – | – | – | – |
| CC(=O)OC12c3ccccc3C1CCCCCC21OCCCO1 (stereo unspecified) | > 100 | > 100 | > 100 | > 100 | > 100 | > 100 | > 100 | > 100 | > 100 | – | – | – | – | – | – | – | – | – | – | – |
| O=C(COc1cccc(/C=C2\COc3ccccc3C2=O)c1)Nc1nccs1 | 10.1 | 5.44 | 11.2 | 3.72 | 29.2 | 25.1 | – | 3.76 | 14.3 | 2650 | 2420 | 3.4 | 15.7 | 3.13 | 12.5 | 4.62 | 3.99 | 1690 | 1.94 | – |
| O=Cc1ccc(-c2ccc(-c3ccc(C=O)s3)o2)s1 | 11 | > 100 | > 100 | > 100 | 0.732 | 2.46 | > 100 | 0.441 | > 100 | – | – | – | – | – | – | – | – | – | – | – |
| C=CC1CC12C(=O)C1OC2(C)C2C(=O)c3c(ccc4c3ccc3ccccc34)C(=O)C12 (stereo unspecified) | > 100 | > 100 | > 100 | > 100 | – | > 100 | > 100 | – | > 100 | > 100000 | 65300 | 64.6 | – | 19.7 | > 100 | 54.1 | > 100 | – | 91.6 | 30.8 |
| N=C(c1ccccc1)N(O)C1CCCCC1 | > 100 | > 100 | > 100 | > 100 | – | > 100 | – | – | > 100 | – | – | – | – | – | – | – | – | – | – | – |
| O=S1(=O)CCN(Cc2ccccn2)CC1 | > 100 | > 100 | > 100 | > 100 | > 100 | > 100 | – | > 100 | > 100 | – | – | – | – | – | > 100 | – | – | – | – | – |
| N=C(N)SCCc1cn2ccccc2n1 | > 100 | > 100 | > 100 | > 100 | – | > 100 | > 100 | – | > 100 | – | – | – | – | – | – | – | – | – | – | – |
| [Cu+2].[O-]c1ccc2ccccc2c1N=Nc1ccccc1.[O-]c1ccc2ccccc2c1N=Nc1ccccc1 | > 100 | > 100 | > 100 | > 100 | – | > 100 | > 100 | > 100 | > 100 | – | – | – | – | > 100 | > 100 | – | – | – | – | – |
| O=C(OCCOCBr)c1ccccc1 | > 100 | > 100 | > 100 | > 100 | > 100 | > 100 | > 100 | > 100 | > 100 | – | – | – | – | – | – | – | – | – | – | – |
| Nc1ccc(Nc2nc(F)nc(-c3c4ccccc4c4n3CCS4)n2)cc1 | 32.8 | 33.3 | 37.8 | – | – | 25.9 | 50.9 | – | 29.4 | – | – | – | – | – | – | – | – | – | – | – |
| CC(=O)OC1CCn2nnc(COC(=O)NC(C)C)c21 (stereo unspecified) | > 100 | > 100 | > 100 | > 100 | – | > 100 | > 100 | > 100 | > 100 | – | – | – | – | – | – | – | – | – | – | – |
